From patent publication US11980616B2, “Treating liver disease by selectively eliminating senescent cells” (Buck Institute for Research on Aging, priority 2014, dated 2024)

Tests used:
[1] = test system: senescence markers and SASP factors in senescent IMR90 cells; experiment: qPCR of senescence markers and SASP factors in irradiated senescent IMR90 cells; type: cell-based, human
Description: Primary human fibroblast (IMR90) cells were induced to senesce by applying 10 Gy of irradiation. Seven days after irradiation (Day 0), cells were treated with 10 μM Nutlin-3a or vehicle (DMSO) for nine days (Day 9). The drug or vehicle was refreshed every three days. Drug/vehicle was removed at Day 9 and the cells were cultured for an additional three days (Day 12) in media without drug or DMSO. Cells were then collected, mRNA extracted, and cDNA prepared. Quantitative PCR (qPCR) was then performed to detect expression of various genes. Cells were also collected at Day 12 after drug/vehicle had been removed for three days. The data are presented as an average of three samples. Data were normalized to actin and depicted as a ratio to non-senescent cells.

[2] = test system: senescent foreskin fibroblasts (Sen(IR)BJ); experiment: Cell count survival assay, irradiation-induced senescent BJ; type: cell-based; conditions: 0, 2.5, 10 μM for 9 days
Description: (§1) Foreskin fibroblast cell lines HCA2 and BJ, lung fibroblast cell line IMR90, and mouse embryonic fibroblasts were seeded in six-well plates and induced to senesce with 10 Gy of ionizing radiation (IR) or a 24 hr treatment with doxorubicin (Doxo). Senescent phenotype was allowed to develop for at least 7 days, at which point a cell count was made to determine the baseline number of cells. Nutlin-3a treatment was then initiated for a period of at least 9 days. Media alone or media with drug as appropriate was refreshed at least every three days. At the end of the assay time period, cells are counted. Each condition was seeded in three plate wells and counted independently. Initial cell count serves as a control to determine the induction of senescence, as compared to the last day count without nutlin treatment. Initial non-senescent cell count serves as a proxy to determine Nutlin-3a toxicity.
Foreskin fibroblast cell lines HCA2 and BJ, lung fibroblast cell line IMR90, and mouse embryonic fibroblasts were exposed to 10 Gy of ionizing radiation (IR) to induce senescence. […] Percent survival was calculated as [cell count on day 9 of Nutlin-3a treatment/initial cell count on first day of Nutlin-3a treatment].

[3] = test system: doxorubicin-treated (Doxo) senescent foreskin fibroblasts (HCA2); experiment: Cell count survival assay, doxorubicin-induced senescent HCA2; type: cell-based; conditions: Sen(Doxo) HCA2; 9 days
Description: as §1
Foreskin fibroblasts (HCA2) and aortic endothelial cells (Endo Aort) were treated with doxorubicin (250 nM) for one day (24 hours) to induce senescence (see FIG. 1). Eight days following doxorubicin treatment, Nutlin-3a treatment was initiated. HCA2 cells were exposed to Nutlin-3a for 9 days, and aortic endothelial cells were exposed to Nutlin-3a for 11 days. […] Percent survival was calculated as [cell count on the last day of Nutlin-3a treatment/initial cell count on first day of Nutlin-3a treatment].

[4] = test system: IL-6 positive senescent IMR90 cells; experiment: IL-6 immunofluorescence in irradiated senescent IMR90 cells; type: cell-based, human
Description: Primary human fibroblast (IMR90) cells were induced to senesce by applying 10 Gy of irradiation. Seven days after irradiation (Day 0), cells were treated with 10 μM Nutlin-3a or vehicle (DMSO) for nine days (Day 9). The drug or vehicle was refreshed every three days. Drug/vehicle was removed at Day 9 and the cells were cultured for an additional three days (Day 12). Cells were then fixed with 4% paraformaldehyde and stained by immunofluorescence with a specific anti-IL-6 antibody (R&D, AF-206-NA). Cells were counterstained with DAPI for nuclear visualization. The percent IL-6 positive cells is illustrated in FIG. 12A. IL-6 positive cells were determined in an unbiased manner using CellProfiler software. Three different cultures were assessed. Non-senescent cells had no detectable cells IL-6 production while senescent cells were about 8% positive at day 9 after vehicle (DMSO) treatment (16 days after irradiation). […] At day 12, 3 days after Nutlin-3a was removed and 19 days after irradiation, IL-6 positive cells in the vehicle control were about 9% and Nutlin3a treated cells were less than 1% positive for IL-6.

[5] = 10 μM, drug present and after removal
[6] = Day 12, three days after drug removal

**Q.** Which “p21 level relative to non-senescent cells” value ([1]; 10 μM, Day 9, qPCR normalized to actin) does the source give for `COc1ccc(C2=N[C@@H](c3ccc(Cl)cc3)[C@@H](c3ccc(Cl)cc3)N2C(=O)N2CCNC(=O)C2)c(OC(C)C)c1` [Nutlin-3a] here?
**A.** approximately 90 fold

**Q.** What about the IL-1α level ([1]; 10 μM, Day 9 and Day 12) of the same molecule?
**A.** decreased only after Nutlin-3a had been removed

**Q.** What about the CXCL-1 level [1, 5] of the same molecule?
**A.** reduced

**Q.** What about the IL-6 level [1, 5] of the same molecule?
**A.** reduced

**Q.** What about the IL-8 level [1, 5] of the same molecule?
**A.** reduced

**Q.** What about the p16 level [1, 6] of the same molecule?
**A.** decrease

**Q.** And the “p21 level vs DMSO treated cells” value [1, 6]?
**A.** comparable

**Q.** And the p16 level ([1]; in the presence of drug (Day 9))?
**A.** did not change

**Q.** And the Percent survival [2]?
**A.** reduced cell survival

**Q.** And the Percent survival [3]?
**A.** sensitive

**Q.** And the “Percent IL-6 positive cells” value ([4]; 10 μM, Day 9, vehicle about 8%)?
**A.** below 5%

**Q.** And the “Percent IL-6 positive cells” value ([4]; Day 12, 3 days after drug removal, vehicle about 9%)?
**A.** less than 1%
